# Data reported in patent publication US20100267561A1, “HERBICIDAL PYRIDAZINONE DERIVATIVES” (priority 2007, published 2010).
# What was measured:
# Format in all cases: in vivo
# [1] = test system: blackgrass (Alopecurus myosuroides); experiment: Test A pre-/postemergence plant response
# In short: (§1)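 Greenhouse pot test: loam–sand soil; pre- and postemergence sprays applied same day; post plants 2–10 cm, 1–2 leaves. Readout ~10 d, visual % injury vs untreated (0 = none, 100 = complete control).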
# [2] = test system: canarygrass (Phalaris minor); experiment: Test A pre-/postemergence plant response
# In short: as §1
# [3] = test system: Virginia (V.) dayflower (Commelina virginica); experiment: Test E pre-/postemergence plant response
# In short: (§2)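 Greenhouse test. Compound, formulated in a non-phytotoxic solvent with surfactant, is applied preemergence to planted seeds and postemergence to 1- to 4-leaf plants of 2 to 18 cm. Plants are compared with controls after 14 to 21 days and scored 0 (no effect) to 100 (complete control).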
# [4] = test system: common mallow (Malva sylvestris); experiment: Test E pre-/postemergence plant response
# In short: as §2
# [5] = test system: common sowthistle (Sonchus oleraceous); experiment: Test E pre-/postemergence plant response
# In short: as §2
# [6] = test system: green foxtail (Setaria viridis); experiment: Test E pre-/postemergence plant response
# In short: as §2
# [7] = test system: itchgrass (Rottboellia cochinchinensis); experiment: Test E pre-/postemergence plant response
# In short: as §2
# [8] = test system: prickly sida (Sida spinosa); experiment: Test E pre-/postemergence plant response
# In short: as §2
# [9] = test system: quackgrass (Elytrigia repens); experiment: Test E pre-/postemergence plant response
# In short: as §2
# [10] = test system: surinam grass (Brachiaria decumbens); experiment: Test E pre-/postemergence plant response
# In short: as §2
# [11] = Postemergence, 31 g ai/ha, 0 to 100 scale, 0 no effect, 100 complete control
# [12] = Postemergence, 125 g ai/ha, 0 to 100 scale, 0 no effect, 100 complete control
# [13] = Preemergence, 31 g ai/ha, 0 to 100 scale, 0 is no effect, 100 is complete control
# [14] = Preemergence, 125 g ai/ha, 0 to 100 scale (0 no effect, 100 complete control)
# [15] = 8 g ai/ha, Postemergence, scale 0 to 100
# [16] = Postemergence, 16 g ai/ha; scale 0 to 100
# [17] = Postemergence, 31 g ai/ha; scale 0 to 100
# [18] = Postemergence, 62 g ai/ha; scale 0 to 100
# [19] = Postemergence, 8 g ai/ha, scale 0 to 100
# [20] = Postemergence, 500 g ai/ha, 0 to 100 scale, 0 no effect, 100 complete control
# [21] = Preemergence, 500 g ai/ha, 0 to 100 scale (0 no effect, 100 complete control)
smiles,measurement,setting,value
"Cc1nn(C)c(=O)c(-c2nc(-c3ccc(Cl)cc3)sc2C)c1O [Compound 79, 4-[2-(4-chlorophenyl)-5-methyl-4-thiazolyl]-5-hydroxy-2,6-dimethyl-3(2H)-pyridazinone]","Plant response rating, Blackgrass",[1]; [11],60
same,"Plant response rating, Blackgrass",[1]; [12],100
same,"Plant response rating, Blackgrass",[1]; [13],80
same,"Plant response rating, Blackgrass",[1]; [14],100
same,"Plant response rating, Canarygrass",[2]; [11],40
same,"Plant response rating, Canarygrass",[2]; [12],90
same,"Plant response rating, Canarygrass",[2]; [13],0
same,"Plant response rating, Canarygrass",[2]; [14],100
"Cn1ncc(O)c(-c2nn(-c3ccc(C(F)(F)F)cc3)cc2Br)c1=O [Compound 87, 4-[4-bromo-1-[4-(trifluoromethyl)phenyl]-1H-pyrazol-3-yl]-5-hydroxy-2-methyl-3(2H)-pyridazinone]","Plant response rating, Blackgrass",[1]; [11],30
same,"Plant response rating, Blackgrass",[1]; [12],80
same,"Plant response rating, Blackgrass",[1]; [13],30
same,"Plant response rating, Blackgrass",[1]; [14],90
same,"Plant response rating, Canarygrass",[2]; [11],10
same,"Plant response rating, Canarygrass",[2]; [12],70
same,"Plant response rating, Canarygrass",[2]; [13],0
same,"Plant response rating, Canarygrass",[2]; [14],90
CCc1c(C)c(-c2ccc(Br)cc2)nn1-c1c(O)cnn(C)c1=O [Compound 83],"Plant response rating, Blackgrass",[1]; [11],90
same,"Plant response rating, Blackgrass",[1]; [12],100
same,"Plant response rating, Blackgrass",[1]; [13],20
same,"Plant response rating, Blackgrass",[1]; [14],100
same,"Plant response rating, Canarygrass",[2]; [11],70
same,"Plant response rating, Canarygrass",[2]; [12],100
same,"Plant response rating, Canarygrass",[2]; [14],90
CCc1cc(-c2ccc(Br)cc2)nn1-c1c(O)c(C)nn(C)c1=O [Compound 74],"Plant response rating, Blackgrass",[1]; [11],100
same,"Plant response rating, Blackgrass",[1]; [12],100
same,"Plant response rating, Blackgrass",[1]; [13],100
same,"Plant response rating, Blackgrass",[1]; [14],100
same,"Plant response rating, Canarygrass",[2]; [11],100
same,"Plant response rating, Canarygrass",[2]; [12],100
same,"Plant response rating, Canarygrass",[2]; [13],80
same,"Plant response rating, Canarygrass",[2]; [14],100
CCCc1cc(-c2ccc(C(F)(F)F)cc2)nn1-c1c(O)cnn(C)c1=O [Compound 72],"Plant response rating, Blackgrass",[1]; [11],80
same,"Plant response rating, Blackgrass",[1]; [12],100
same,"Plant response rating, Blackgrass",[1]; [13],70
same,"Plant response rating, Blackgrass",[1]; [14],100
same,"Plant response rating, Canarygrass",[2]; [11],40
same,"Plant response rating, Canarygrass",[2]; [12],100
same,"Plant response rating, Canarygrass",[2]; [13],50
same,"Plant response rating, Canarygrass",[2]; [14],80
"Cc1cn(-c2ccc(C(F)(F)F)cc2)nc1-c1c(O)cnn(C)c1=O [Compound 85, 5-hydroxy-2-methyl-4-[4-methyl-1-[4-(trifluoromethyl)phenyl]-1H-pyrazol-3-yl]-3(2H)-pyridazinone]","Plant response rating, Blackgrass",[1]; [11],0
same,"Plant response rating, Blackgrass",[1]; [12],40
same,"Plant response rating, Blackgrass",[1]; [13],0
same,"Plant response rating, Blackgrass",[1]; [14],40
same,"Plant response rating, Canarygrass",[2]; [11],0
same,"Plant response rating, Canarygrass",[2]; [12],20
same,"Plant response rating, Canarygrass",[2]; [13],40
same,"Plant response rating, Canarygrass",[2]; [14],70
COc1nn(C)c(=O)c(-n2nc(-c3ccc(Br)cc3)cc2C)c1O [Compound 82],"Plant response rating, Blackgrass",[1]; [11],100
same,"Plant response rating, Blackgrass",[1]; [12],100
same,"Plant response rating, Blackgrass",[1]; [13],70
same,"Plant response rating, Blackgrass",[1]; [14],100
same,"Plant response rating, Canarygrass",[2]; [11],100
same,"Plant response rating, Canarygrass",[2]; [12],100
same,"Plant response rating, Canarygrass",[2]; [13],20
same,"Plant response rating, Canarygrass",[2]; [14],100
Cc1cc(-c2ccc(Cl)cc2)nn1-c1c(OC(=O)Oc2ccccc2)cnn(C)c1=O [Compound 54],"Plant response rating, Dayflower, V.",[3]; [15],0
same,"Plant response rating, Dayflower, V.",[3]; [16],0
same,"Plant response rating, Dayflower, V.",[3]; [17],0
same,"Plant response rating, Dayflower, V.",[3]; [18],0
same,"Plant response rating, Mallow",[4]; [15],0
same,"Plant response rating, Mallow",[4]; [16],0
same,"Plant response rating, Mallow",[4]; [17],0
same,"Plant response rating, Mallow",[4]; [18],0
same,"Plant response rating, Sowthistle",[5]; [15],0
same,"Plant response rating, Sowthistle",[5]; [16],0
same,"Plant response rating, Sowthistle",[5]; [17],0
same,"Plant response rating, Sowthistle",[5]; [18],0
same,"Plant response rating, Foxtail, Green",[6]; [15],40
same,"Plant response rating, Foxtail, Green",[6]; [16],70
same,"Plant response rating, Foxtail, Green",[6]; [17],80
same,"Plant response rating, Foxtail, Green",[6]; [18],98
same,"Plant response rating, Itchgrass",[7]; [15],10
same,"Plant response rating, Itchgrass",[7]; [16],90
same,"Plant response rating, Itchgrass",[7]; [17],95
same,"Plant response rating, Itchgrass",[7]; [18],100
same,"Plant response rating, Prickly Sida",[8]; [15],0
same,"Plant response rating, Prickly Sida",[8]; [16],0
same,"Plant response rating, Prickly Sida",[8]; [17],0
same,"Plant response rating, Prickly Sida",[8]; [18],0
same,"Plant response rating, Quackgrass",[9]; [15],0
same,"Plant response rating, Quackgrass",[9]; [16],0
same,"Plant response rating, Quackgrass",[9]; [17],0
same,"Plant response rating, Quackgrass",[9]; [18],35
same,"Plant response rating, Surinam Grass",[10]; [15],90
same,"Plant response rating, Surinam Grass",[10]; [16],90
same,"Plant response rating, Surinam Grass",[10]; [17],100
same,"Plant response rating, Surinam Grass",[10]; [18],100
CCc1cc(-c2ccc(Br)cc2)nn1-c1c(O)cnn(CC(F)(F)F)c1=O [Compound 73],"Plant response rating, Blackgrass",[1]; [11],90
same,"Plant response rating, Blackgrass",[1]; [12],90
same,"Plant response rating, Blackgrass",[1]; [13],60
same,"Plant response rating, Blackgrass",[1]; [14],90
same,"Plant response rating, Canarygrass",[2]; [11],20
same,"Plant response rating, Canarygrass",[2]; [12],100
same,"Plant response rating, Canarygrass",[2]; [13],30
CCCc1cc(-c2ccc(Cl)cc2)nn1-c1c(O)cnn(C)c1=O [Compound 76],"Plant response rating, Blackgrass",[1]; [11],90
same,"Plant response rating, Blackgrass",[1]; [12],100
same,"Plant response rating, Blackgrass",[1]; [14],90
same,"Plant response rating, Canarygrass",[2]; [11],40
same,"Plant response rating, Canarygrass",[2]; [12],100
same,"Plant response rating, Canarygrass",[2]; [13],30
same,"Plant response rating, Canarygrass",[2]; [14],70
Cc1cc(-c2ccc(Cl)cc2)nn1-c1c(OC(=O)c2cccc(Cl)c2)cnn(C)c1=O [Compound 32],"Plant response rating, Dayflower, V.",[3]; [19],0
same,"Plant response rating, Dayflower, V.",[3]; [16],0
same,"Plant response rating, Dayflower, V.",[3]; [17],0
same,"Plant response rating, Dayflower, V.",[3]; [18],0
same,"Plant response rating, Mallow",[4]; [19],0
same,"Plant response rating, Mallow",[4]; [16],0
same,"Plant response rating, Mallow",[4]; [17],0
same,"Plant response rating, Mallow",[4]; [18],0
same,"Plant response rating, Sowthistle",[5]; [19],0
same,"Plant response rating, Sowthistle",[5]; [16],0
same,"Plant response rating, Sowthistle",[5]; [17],0
same,"Plant response rating, Sowthistle",[5]; [18],0
same,"Plant response rating, Foxtail, Green",[6]; [19],40
same,"Plant response rating, Foxtail, Green",[6]; [16],60
same,"Plant response rating, Foxtail, Green",[6]; [17],85
same,"Plant response rating, Foxtail, Green",[6]; [18],90
same,"Plant response rating, Itchgrass",[7]; [19],30
same,"Plant response rating, Itchgrass",[7]; [16],75
same,"Plant response rating, Itchgrass",[7]; [17],90
same,"Plant response rating, Itchgrass",[7]; [18],90
same,"Plant response rating, Prickly Sida",[8]; [19],0
same,"Plant response rating, Prickly Sida",[8]; [16],0
same,"Plant response rating, Prickly Sida",[8]; [17],0
same,"Plant response rating, Prickly Sida",[8]; [18],0
same,"Plant response rating, Quackgrass",[9]; [19],0
same,"Plant response rating, Quackgrass",[9]; [16],0
same,"Plant response rating, Quackgrass",[9]; [17],0
same,"Plant response rating, Quackgrass",[9]; [18],0
same,"Plant response rating, Surinam Grass",[10]; [19],80
same,"Plant response rating, Surinam Grass",[10]; [17],100
same,"Plant response rating, Surinam Grass",[10]; [18],100
"Cc1cc(-c2ccc(Br)cc2)nn1-c1c(O)cnn(C2CCCCO2)c1=O (stereo not shown) [Compound 77, 4-[3-(4-bromophenyl)-5-methyl-1H-pyrazol-1-yl]-5-hydroxy-2-(tetrahydro-2H-pyran-2-yl)-3(2H)-pyridazinone]","Plant response rating, Blackgrass",[1]; [12],100
same,"Plant response rating, Blackgrass",[1]; [20],100
same,"Plant response rating, Blackgrass",[1]; [14],80
same,"Plant response rating, Blackgrass",[1]; [21],100
same,"Plant response rating, Canarygrass",[2]; [12],60
same,"Plant response rating, Canarygrass",[2]; [20],100
same,"Plant response rating, Canarygrass",[2]; [21],90
